Patent publication US11319303B2 (WIGEN BIOMEDICINE TECHNOLOGY (SHANGHAI) CO., LTD., priority 2017, dated 2022)
Read-outs that look alike come from different tables or passages of the source.

Biological target: LC3B (Homo sapiens, UniProt Q9GZQ8)
Assay: Fluorescence Polarization (FP) Assay: displacement of FITC-labeled peptide from GST-LC3B
Type: binding
Procedure: The compounds of the present invention for regulating the autophagy-related protein LC3B were tested by Fluorescence Polarization (FP) Assay.
Fluorescence Polarization (FP) Assay Test

[1] = Fluorescence Polarization assay, GST-LC3B 180 nM, FITC-labeled peptide 18 nM, 25° C., read-out: IC50

SMILES | IC50 [1] [µM] | IC50 [µM]
O=C1Nc2ccc(C(F)(F)F)cc2C(=O)/C1=C/NCCN1CCN(CCO)CC1 [Compound 317, 3-(((2-(4-(2-hydroxyethyl)piperazin-1-yl)ethyl)amino)methylene)-6-(trifluoromethyl) quinoline-2,4(1H,3H)-dione] | 3 to 15 | –
COc1cccc(C2CC(=O)C(=CNCCN(C)C)C(=O)C2)c1 (stereo not shown) [Compound 337, 2-(((2-(dimethylamino)ethyl)amino)methylene)-5-(3-methoxyphenyl) cyclohexane-1,3-dione] | < 3 | –
CN(C)CCNC=C1C(=O)CC(c2cccnc2Br)CC1=O (stereo not shown) [Compound 338, 5-(2-bromopyridin-3-yl)-2-(((2-(dimethylamino)ethyl)amino)methylene) cyclohexane-1,3-dione] | – | < 3
CN(C)CCNC=C1C(=O)CC(c2ccc([N+](=O)[O-])cc2)CC1=O (stereo not shown) [Compound 340, 2-(((2-(dimethylamino)ethyl)amino)methylene)-5-(4-nitrophenyl) cyclohexane-1,3-dione] | < 3 | –
CN(C)CCNC=C1C(=O)CC(C(=O)Nc2ccccc2)CC1=O (stereo not shown) [Compound 343, 4-(((2-(dimethylamino)ethyl)amino)methylene)-3,5-dioxo-N-phenylcyclohexane-1-carboxamide] | 3 to 15 | –
CN(C)CCNC=C1C(=O)CC(c2ccccc2N2CCOCC2)CC1=O (stereo not shown) [Compound 344] | 3 to 15 | –
CC(=O)Nc1ccccc1C1CC(=O)C(=CNCCN(C)C)C(=O)C1 (stereo not shown) [Compound 345, N-(2-(4-(((2-(dimethylamino)ethyl)amino)methylene)-3,5-dioxocyclohexyl)phenyl) acetamide] | 3 to 15 | –
CN(C)CCNC=C1C(=O)CC(c2cc(F)ccc2Br)CC1=O (stereo not shown) [Compound 349, 5-(2-bromo-5-fluorophenyl)-2-(((2-(dimethylamino)ethyl)amino)methylene) cyclohexane-1,3-dione] | < 3 | –
CN(C)CCNC=C1C(=O)CC(c2cccc(F)c2Br)CC1=O (stereo not shown) [Compound 350, 5-(2-bromo-3-fluorophenyl)-2-(((2-(dimethylamino)ethyl)amino)methylene) cyclohexane-1,3-dione] | – | < 3
CN(C)CCNC=C1C(=O)CC(c2cc(F)ccc2Cl)CC1=O (stereo not shown) [Compound 351, 5-(2-chloro-5-fluorophenyl)-2-(((2-(dimethylamino)ethyl)amino)methylene) cyclohexane-1,3-dione] | < 3 | –
O=C1Nc2cc(C(F)(F)F)ccc2C(=O)/C1=C\NCCN1CCN(CCO)CC1 [Compound 354, 3-(((2-(4-(2-hydroxyethyl)piperazin-1-yl)ethyl)amino)methylene)-7-(trifluoromethyl) quinoline-2,4(1H,3H)-dione] | < 3 | –
O=C1CC(c2ccccc2)CC(=O)C1=CNc1cccc2c1CNC2=O (stereo not shown) [Compound 355, 2-(((1-oxoisoindolin-4-yl)amino)methylene)-5-phenylcyclohexane-1,3-dione] | < 3 | –
CN(C)CCNC=C1C(=O)CC(c2c(Cl)cccc2C(F)(F)F)CC1=O (stereo not shown) [Compound 358, 5-(2-chloro-6-(trifluoromethyl)phenyl)-2-(((2-(dimethylamino)ethyl)amino)methylene) cyclohexane-1,3-dione] | < 3 | –
CN(C)CCNC=C1C(=O)CC(C(=O)NCc2ccccc2)CC1=O (stereo not shown) [Compound 359, N-benzyl-4-(((2-(dimethylamino)ethyl)amino)methylene)-3,5-dioxocyclohexane-1-carboxamide] | 15 to 100 | –
CN(C)CCNC=C1C(=O)CC(C(=O)Nc2ccc(Br)cc2)CC1=O (stereo not shown) [Compound 360, N-(4-bromophenyl)-4-(((2-(dimethylamino)ethyl)amino)methylene)-3,5-dioxocyclohexane-1-carboxamide] | 3 to 15 | –
CN(C)CCNC=C1C(=O)CC(c2c(F)cccc2Cl)CC1=O (stereo not shown) [Compound 361, 5-(2-chloro-6-fluorophenyl)-2-(((2-(dimethylamino)ethyl)amino)methylene) cyclohexane-1,3-dione] | < 3 | –
CN(C)CCNC=C1C(=O)CC(c2cc(C(F)(F)F)ccc2Br)CC1=O (stereo not shown) [Compound 362, 5-(2-bromo-5-(trifluoromethyl)phenyl)-2-(((2-(dimethylamino)ethyl)amino)methylene) cyclohexane-1,3-dione] | < 3 | –

The next lines start with results.

IC50 [1] [µM] | SMILES | IC50 [µM]
< 3 | O=C1Nc2c(cccc2[N+](=O)[O-])C(=O)/C1=C/NCCN1CCN(CCO)CC1 [Compound 318, 3-(((2-(4-(2-hydroxyethyl)piperazin-1-yl)ethyl)amino)methylene)-8-nitroquinoline-2,4(1H,3H)-dione] | –
< 3 | O=C1CC(c2ccccc2C(F)(F)F)CC(=O)C1=CNCCN1CCN(CCO)CC1 (stereo not shown) [Compound 320, 2-(((2-(4-(2-hydroxyethyl)piperazin-1-yl)ethyl)amino)methylene)-5-(2-(trifluoromethyl)phenyl) cyclohexane-1,3-dione] | –
3 to 15 | O=C1Nc2c(cccc2-c2ccccc2)C(=O)/C1=C\NCCN1CCN(CCO)CC1 [Compound 321, 3-(((2-(4-(2-hydroxyethyl)piperazin-1-yl)ethyl)amino)methylene)-8-phenylquinoline-2,4(1H,3H)-dione] | –
< 3 | O=C1CC(c2cccc3[nH]cc(Cl)c23)CC(=O)C1=CNCCN1CCN(CCO)CC1 (stereo not shown) [Compound 322, 5-(3-chloro-1H-indol-4-yl)-2-(((2-(4-(2-hydroxyethyl)piperazin-1-yl)ethyl)amino)methylene) cyclohexane-1,3-dione] | –
3 to 15 | O=C1CC(c2ccccc2)C(c2ccccc2)C(=O)C1=CNCCN1CCN(CCO)CC1 (stereo not shown) [Compound 323, 2-(((2-(4-(2-hydroxyethyl)piperazin-1-yl)ethyl)amino)methylene)-4,5-diphenylcyclo-hexane-1,3-dione] | –
3 to 15 | CC1(C)C(=O)C(=CNCCN2CCN(CCO)CC2)C(=O)CC1c1ccccc1 (stereo not shown) [Compound 324, 2-(((2-(4-(2-hydroxyethyl)piperazin-1-yl)ethyl)amino)methylene)-4,4-dimethyl-5-phenylcyclohexane-1,3-dione] | –
15 to 100 | CC1C(=O)/C(=C/NCCN2CCN(CCO)CC2)C(=O)CC1(O)c1ccccc1 (stereo not shown) [Compound 325, 5-hydroxy-2-(((2-(4-(2-hydroxyethyl)piperazin-1-yl)ethyl)amino)methylene)-4-methyl-5-phenylcyclohexane-1,3-dione] | –
100 to 1000 | O=C(NCCN1CCN(CCO)CC1)C1C(=O)Nc2ccccc2C1=O (stereo not shown) [Compound 326, N-(2-(4-(2-hydroxyethyl)piperazin-1-yl)ethyl)-2,4-dioxo-1,2,3,4-tetrahydroquinoline-3-carboxamide] | –
< 3 | N#CC1C(=O)C(=CNCCN2CCN(CCO)CC2)C(=O)CC1c1ccccc1 (stereo not shown) [Compound 327, 2-(((2-(4-(2-hydroxyethyl)piperazin-1-yl)ethyl)amino)methylene)-4-cyano-5-phenylcyclohexane-1,3-dione] | –
3 to 15 | O=C1Nc2ccc(-c3ccccc3)cc2C(=O)/C1=C/NCCN1CCN(CCO)CC1 [Compound 328, 3-(((2-(4-(2-hydroxyethyl)piperazin-1-yl)ethyl)amino)methylene)-6-phenylquinoline-2,4(1H,3H)-dione] | –
< 3 | Cc1ccc(C2CC(=O)C(=CNCCN3CCN(CCO)CC3)C(=O)C2)c(Br)c1 (stereo not shown) [Compound 329, 5-(2-bromo-4-methylphenyl)-2-(((2-(4-(2-hydroxyethyl)piperazin-1-yl)ethyl)amino)methylene) cyclohexane-1,3-dione] | –
3 to 15 | CCOC(=O)C1C(=O)/C(=C\NCCN2CCN(CCO)CC2)C(=O)CC1c1cccc2[nH]ccc12 (stereo not shown) [Compound 330, ethyl 3-(((2-(4-(2-hydroxyethyl)piperazin-1-yl)ethyl)amino)methylene)-6-(1H-indol-4-yl)-2,4-dioxocyclohexane-1-carboxylate] | –
< 3 | O=C1Nc2c(ccc3ccccc23)C(=O)/C1=C\NCCN1CCN(CCO)CC1 [Compound 331, 3-(((2-(4-(2-hydroxyethyl)piperazin-1-yl)ethyl)amino)methylene) benzo[h]quinoline-2,4(1H,3H)-dione] | –
< 3 | CN(C)c1ccc(Br)c(C2CC(=O)C(=CNCCN3CCN(CCO)CC3)C(=O)C2)c1 (stereo not shown) [Compound 332, 5-(2-bromo-5-(dimethylamino)phenyl)-2-(((2-(4-(2-hydroxyethyl)piperazin-1-yl)ethyl)amino)methylene) cyclohexane-1,3-dione] | –
15 to 100 | NC(=O)C1C(=O)C(=CNCCN2CCN(CCO)CC2)C(=O)CC1c1ccccc1 (stereo not shown) [Compound 333, 3-(((2-(4-(2-hydroxyethyl)piperazin-1-yl)ethyl)amino)methylene)-2,4-dioxo-6-phenylcyclohexane-1-carboxamide] | –
3 to 15 | CC(C)(C)OC(=O)C1C(=O)C(=CNCCN2CCN(CCO)CC2)C(=O)CC1c1ccccc1 (stereo not shown) [Compound 334, tert-butyl 3-(((2-(4-(2-hydroxyethyl)piperazin-1-yl)ethyl)amino)methylene)-2,4-dioxo-6-phenylcyclohexane-1-carboxylate] | –
3 to 15 | CCOC(=O)C1C(=O)C(=CNCCN2CCN(CCO)CC2)C(=O)CC1c1ccccc1 (stereo not shown) [Compound 335, ethyl 3-(((2-(4-(2-hydroxyethyl)piperazin-1-yl)ethyl)amino)methylene)-2,4-dioxo-6-phenylcyclohexane-1-carboxylate] | –
3 to 15 | CC1(C#N)C(=O)C(=CNCCN2CCN(CCO)CC2)C(=O)CC1c1ccccc1 (stereo not shown) [Compound 336, 3-(((2-(4-(2-hydroxyethyl)piperazin-1-yl)ethyl)amino)methylene)-1-methyl-2,4-dioxo-6-phenylcyclohexane-1-carbonitrile] | –
100 to 1000 | O=C1CCCCC(=O)C1=CNCCN1CCN(CCO)CC1 [Compound 352, 2-(((2-(4-(2-hydroxyethyl)piperazin-1-yl)ethyl)amino)methylene) cycloheptane-1,3-dione] | –
< 3 | O=C1CC(c2cccc3[nH]cc(-c4ccccc4)c23)CC(=O)C1=CNCCN1CCN(CCO)CC1 (stereo not shown) [Compound 353, 2-(((2-(4-(2-hydroxyethyl)piperazin-1-yl)ethyl)amino)methylene)-5-(3-phenyl-1H-indol-4-yl)cyclohexane-1,3-dione] | –
